Laboratory results as given in patent publication US20170332666A1, “APPLICATION OF P-METHYL BENZOIC ACID OR SALTS THEREOF AS ADDITIVES FOR ANIMAL FEED” (priority 2015, published 2017).
Several values for one entry are separate records, joined by “and”; a condition that tells them apart may be missing. Identical values can stand only once.

Assays:
[1] = system: weaned pigs; assay: Growth promotion test of weaned pigs with additives in creep feed; format: in vivo, pig (Duroc×Landrace×Large White piglets); details: for Average daily weight gain / Diarrhea rate / Feed conversion ratio: 10 days
Text: 140 weaned Duroc×Landrace×Large White piglets aged 28 days with similar body weight and further having an average body weight of 7.61 kg were divided into 14 groups, each with 10 pigs. After adding different concentrations of p-methyl benzoic acid or its calcium, sodium, potassium or zinc salt prepared by the embodiments disclosed herein into the conventional creep feed (excluding acidifying agent) of each group, the pigs were free feeding and drinking during the test period of 10 days, then to collect statistics of the weight gain and the feed conversion ratio as well as the diarrhea rate of test pig in each test group.

[2] = system: meat-type ducks; assay: Feeding test of meat-type ducks with additives in basic diet; format: in vivo, Cherry Valley ducks; details: for Average daily weight gain / Average feed conversion ratio / Survival rate: 2000 ppm in basic diet, 30 days
Text: 300 Cherry Valley ducks aged 1 day were divided into 6 groups with 50 ducks per group. After adding different concentrations of p-methyl benzoic acid or benzoic acid into the same basic diet (without antibiotics) of each group, the Cherry Valley ducks were free feeding and drinking, and continued feeding for 30 days, then to collect statistics of the production performance and the survival rate of test ducks, the test grouping and metered concentrations are shown in Table 3, and the results of the production performance are shown in Table 4.

[3] = system: grass carps; assay: Growth promotion test in grass carps with additives in feed; format: in vivo, grass carp; details: for Feed conversion ratio (FCR) / Final weight / Survival rate SR / Weight gain rate: 3000 ppm in feed, 8 weeks
Description: The test was performed on an aquaculture farm of Guangzhou Insighter Biotechnology CO., LTD, and the test fish is grass carp. Healthy and lively grass carps with the same species and sizes were fed in a large cage for 4 weeks, thereafter used for formal test, and the test system is a small floating cage. The small floating cage and temporary cages were placed in a 3500 square meter pond of the test field. Water depth of the pond was close to 1.5m, and the pond water is fully aerated. When testing, 160 grass carps starved for 1 day were randomly divided into 4 groups, each group with 4 replicates, and each replicate with 10 fish. After the whole weighing, the samples were randomly placed in 16 cages and fed with different test diets. The test diets were self-formulated in accordance with Table 5, and the basic diets of different test groups were adding different growth promoters respectively. The test adopted artificial feeding with food restriction, and the feed intake was adjusted once a week, the feeding levels of two groups were completely consistent (metered by the initial weight), the fish in each group is fed two times in one day (7:30 and 15:00). The test lasted for 8 weeks.

[4] = system: broilers; assay: Growth promotion test of broilers with acidifying agents in complete formula feed; format: in vivo, broilers (chicken); details: for Effect on daily gain (in words) / Effect on feed conversion ratio (in words): 2000 ppm; for Average daily weight gain / Feed conversion ratio: 2000 ppm in complete formula feed, 21 days
Description: 300 broilers (female seedlings) aged 1 day were divided into 6 groups in accordance with Table 6, and each group with 50 broilers. Acidifying agent with different type or concentration was added to the complete formula feed for chickens without any acidifying agents in each group, the broilers were free feeding and drinking during the test period of 21 days and then to collect statistics of the weight gain and the feed conversion ratio of test broiler in each test group.

| Compound | Average daily weight gain ([1]; 2000 ppm in creep feed) | Diarrhea rate ([1]; 2000 ppm in creep feed) | Feed conversion ratio ([1]; 2000 ppm in creep feed) | Survival rate [2] | Feed conversion ratio (FCR) [3] | Final weight [3] | Survival rate SR [3] | Weight gain rate [3] | Effect on diarrhea rate of test pigs (in words) ([1]; 2000 ppm) | Improvement of production performance (in words) ([1]; 2000 ppm) | Effect on diarrhea rate of test pigs (in words) ([1]; 10000 ppm to 20000 ppm) | Improvement of production performance (in words) ([1]; 10000 ppm to 20000 ppm) | Effect on daily gain (in words) [4] | Effect on feed conversion ratio (in words) [4] | Average daily weight gain [4] | Feed conversion ratio [4] | other results |
| --- | --- | --- | --- | --- | --- | --- | --- | --- | --- | --- | --- | --- | --- | --- | --- | --- | --- |
| O=C(O)c1ccccc1 [benzoic acid] | 192.3 g and 193.5 g | 22.0% and 23.0% | 1.66 and 1.65 | 92% | 1.46 | 585 g | 100% | 147% | – | – | – | – | – | – | – | – | Rate of anti-diarrhea as compared to phosphoric acid or citric acid (in words) ([1]; equal concentration (2000 ppm)): increased slightly; Average daily weight gain [2]: 59.7; Average feed conversion ratio [2]: 2.10 |
| Cc1ccc(C(=O)[O-])cc1.Cc1ccc(C(=O)[O-])cc1.[Ca+2] [calcium p-methyl benzoate] | 203.6 g | 12.0% | 1.54 | – | 1.40 | 612 g | 100% | 157% | significantly reduce the diarrhea rate | significant dose effect | significantly reduce the diarrhea rate | significant dose effect | – | – | – | – | Growth promotion versus blank control group (in words) [3]: obvious effects on growth promotion |
| O=C(O)CC(O)(CC(=O)O)C(=O)O [citric acid, reference compound] | 181.3 g and 180.4 g | 31.0% and 26.0% | 1.67 and 1.68 | – | 1.47 | 582 g | 100% | 147% | no such effects | no such effects | – | – | no such effects | no such effects | 19.8 g | 1.88 | – |
| O=CO [formic acid, reference compound] | 173.4 g | 25.0% | 1.65 | 93% | – | – | – | – | – | – | – | – | – | – | – | – | Average daily weight gain [2]: 58.6; Average feed conversion ratio [2]: 2.11 |
| Cc1ccc(C(=O)O)cc1 [p-methyl benzoic acid] | – | – | – | 100% | – | – | – | – | significantly reduce the diarrhea rate | significant dose effect | significantly reduce the diarrhea rate | significant dose effect | – | – | 24.5 g | 1.76 | Average daily weight gain ([1]; 10000 ppm in creep feed): 215.8 g; Diarrhea rate ([1]; 10000 ppm in creep feed): 11.0%; Feed conversion ratio ([1]; 10000 ppm in creep feed): 1.51; Average daily weight gain ([1]; 20000 ppm in creep feed): 221.4 g; Diarrhea rate ([1]; 20000 ppm in creep feed): 9.0%; Feed conversion ratio ([1]; 20000 ppm in creep feed): 1.47; Production performance and survival rate (in words) [2]: greatly improved |
| O=P(O)(O)O [phosphoric acid, reference compound] | 175.3 g | 27.0% | 1.66 | – | – | – | – | – | no such effects | no such effects | – | – | – | – | – | – | – |
| Cc1ccc(C(=O)[O-])cc1.[K+] [potassium p-methyl benzoate] | 205.8 g | 15.0% | 1.58 | – | – | – | – | – | – | – | significantly reduce the diarrhea rate | significant dose effect | – | – | – | – | – |
| Cc1ccc(C(=O)[O-])cc1.[Na+] [sodium p-methyl benzoate] | 203.7 g | 17.0% | 1.55 | – | – | – | – | – | – | – | significantly reduce the diarrhea rate | significant dose effect | significantly increase the daily gain | improve the feed conversion ratio | 24.3 g | 1.79 | – |
| C/C=C/C=C/C(=O)O [sorbic acid] | – | – | – | – | – | – | – | – | – | – | – | – | no such effects | no such effects | 19.9 g | 1.89 | – |
| Cc1ccc(C(=O)[O-])cc1.Cc1ccc(C(=O)[O-])cc1.[Zn+2] [zinc p-methyl benzoate] | 201.3 g | 15.0% | 1.60 | – | – | – | – | – | – | – | – | – | – | – | – | – | – |
